Test results taken from patent US10238688B2, “Combination therapies for bladder cancer” (GENEDIA BIOTECH CO. LTD., priority 2015, dated 2019).

Key:
Format in all cases: cell-based, human
[1] = system: MAPK/ERK pathway; assay: Cignal Finder dual-luciferase pathway reporter, MAPK/ERK; conditions: for Relative activity, MAPK/ERK reporter: luc/Renluc relative to negative control reporter, single drug at 4 folds vs EH/Ci/Mi combination
Description: (§1) The pathway analysis was performed with Qiagen's Cignal Finder Pathway Reporter Array systems according to the manufacturer's instructions. The pathway-focused dual-luciferase reporter construct was a mixture of an inducible transcription factor responsive firefly luciferase reporter and constitutively expressing renilla construct. Transcriptional response element (TRE) sequence response elements to each specific transcriptional factor triggered by the different signaling pathways are positioned before the TATA box of firefly luciferase reporter gene. The extent of activity of the reporter reflects the level of activity of the particular signaling pathway. CMV controlled renilla expression vector is co-transfected into the cell as an internal control. Non-inducible reporter construct that lacks the transcriptional factor binding sequence and could not be induced by any transcription factors is used as a negative control. Cells transfected with CMV directed firefly luciferase reporter gene serve as a positive control. Briefly, cells seeded in 6-well plates were transfected with Cignal finder pathway arrays according to the manufacturer's instructions (Qiagen). Then cells were seeded onto 96-well plates. Ci (6000 ng/mL), Mi (800 ng/mL), or EH (1000 ng/mL) and Ci/Mi/EH combination (Ci, 1500 ng/mL, Mi, 800 ng/mL and EH, 1000 ng/m L) were then added to the cells 24 h post-transfection. After 6 h of incubation with the different drugs at 37° C., cells were lysed and a dual luciferase assay (for firefly and renilla luciferase) was performed using a PromegaGloMax 20/20 illuminometer. The firefly luciferase activities were normalized over the renilla luciferase activities after background activity determined by luciferase activities of negative controls was subtracted. A triple test of cell survival under these drug doses was also performed by MTT assay following 18 h incubation at 37° C. […]

[2] = system: UM-UC-3; assay: MTT cell survival / IC50, UM-UC-3 cells; conditions: for Cell survival (%) / Single drug 4X Cell Survival (%): UM-UC-3; for Cell survival (%): Table S3, ng/ml: Pi 40, Pa 160, EH 250, Ci 1500, Mi 200, 1=Ci/Mi, 2=EH/Ci/Mi, 3=Pa/Ci/Mi, 4=Pi/Ci/Mi; for Single drug 4X Cell Survival (%): ng/ml: EH 1000, Ci 6000, Mi 800, Pi 160, Pa 640, Ge 20, EH/Ci/Mi regimen; for ACS (%): UM-UC-3 cells, Table 4 (B); for Cell survival 72 hours: Um-Uc-3 cells, Table 4 (A)
Description: (§2) The clinical grade of the chemotherapeutics (NCI Dictionary of Cancer Terms) was provided by the First Affiliated Hospital of Harbin Medical University: Pirarubicin (Pi, Wanle, Shenzhen), Paclitaxel (Pa, Taiji, Sichuan), Adriamycin (Ad, Pfizer, Jiangsu), Epirubicin Hydrochloride (EH, Haizheng, Zhejiang), Hydroxycamptothecin (Hy, Lishizhen, Hubei), Cisplatin (Ci, Haosen, Jiangsu), Gemcitabine (Ge, Haosen, Jiangsu) and Mitomycin (Mi, Haizheng, Zhejiang). The drug induced cell death was determined by a thiazolyl […] (MTT, 490 nm reading) based cell proliferation assay in the cultured cells following treatment by various concentrations of drugs for 72 hours. The relative chemoresistance to each drug of all cell lines was calculated with the lowest IC50 as a reference. The overall chemoresistance of each cell line was described as “chemoresistance index”, the numerator of the total relative IC50 to all the drugs over the number of drugs to rank the overall resistance state of each cell line to the six chemotherapeutics collectively.
(§3) The relative IC50 (fold) of each drug of all nine cell lines was normalized to the lowest IC50 in the most sensitive cell line (FIG. 2G), to describe the single drug resistance of cell lines. The overall chemoresistance of each cell line, a “chemoresistance index” (the numerator of the total relative IC50 over the number of drugs) (FIG. 2G) were calculated to rank the overall resistance state of each cell line to this six chemotherapeutics.
(§4) Twenty six-drug combinations at the indicated doses were initially generated through a random number generator (using MATLAB MathWorks©, Natick, Mass., U.S.) (The upper half of Table 1). The cell survival (% over the not drug control) of treated cells was determined and then used for a calculation of the average cumulative cell survival (%, ACS: the sum of cell survival (%) per combination divided by the number of cell lines tested). ACS<30% was used to separate the effective from the not-effective combinations.

[3] = system: T24; assay: MTT cell survival / IC50, T24 cells; conditions: for Cell survival (%): Table S3, ng/ml: Pi 40, Pa 160, EH 250, Ci 1500, Mi 200, 1=Ci/Mi, 2=EH/Ci/Mi, 3=Pa/Ci/Mi, 4=Pi/Ci/Mi; for Single drug 4X Cell Survival (%): ng/ml: EH 1000, Ci 6000, Mi 800, Pi 160, Pa 640, Ge 20, EH/Ci/Mi regimen
Description: as §2, §3, §4

[4] = system: J-82; assay: MTT cell survival / IC50, J-82 cells; conditions: J82; Table S3; ng/ml: Pi 40, Pa 160, EH 250, Ci 1500, Mi 200; 1=Ci/Mi, 2=EH/Ci/Mi, 3=Pa/Ci/Mi, 4=Pi/Ci/Mi
Description: as §2, §3, §4

[5] = system: Heat Shock pathway; assay: Cignal Finder dual-luciferase pathway reporter, Heat Shock; parameters: key to Relative activity, Heat Shock reporter: firefly/renilla ratio, background (negative control) subtracted; conditions: for Relative activity, Heat Shock reporter: luc/Renluc relative to negative control reporter, single drug at 4 folds vs EH/Ci/Mi combination
Description: as §1, with “Ci (6000 ng/mL), Mi (800 ng/mL), or EH (1000 ng/mL) and Ci/Mi/EH combination (Ci, 1500 ng/mL, Mi, 800 ng/mL and EH, 1000 ng/m L) were then added to the cells 24 h post-transfection.” left out

SMILES | relative drug trigged pathway activity over the no-drug level, MAPK/ERK ([1]; 5637 cells) [fold] | Relative activity, MAPK/ERK reporter ([1]; 5637 cells) | digitalized pathway activity, MAPK/ERK ([1]; Biu87 cells) | relative drug trigged pathway activity over the no-drug level, MAPK/ERK ([1]; Biu87 cells) [fold] | Relative activity, MAPK/ERK reporter ([1]; Biu87 cells) | digitalized pathway activity, MAPK/ERK ([1]; H-bc cells) | relative drug trigged pathway activity over the no-drug level, MAPK/ERK ([1]; H-bc cells) [fold] | Relative activity, MAPK/ERK reporter ([1]; H-bc cells) | relative drug trigged pathway activity over the no-drug level, MAPK/ERK ([1]; SV-HUC-1 cells) [fold] | Relative activity, MAPK/ERK reporter ([1]; SV-HUC-1 cells) | Relative activity, MAPK/ERK reporter ([1]; UM-UC-3 cells) | relative drug trigged pathway activity over the no-drug level, MAPK/ERK ([1]; Um-Uc-3 cells) [fold] | Cell survival (%) [2] [%] | Single drug 4X Cell Survival (%) [2] [%] | ACS (%) [2] [%] | Cell survival 72 hours [2] [%] | Cell survival (%) [3] [%] | Single drug 4X Cell Survival (%) [3] [%] | Cell survival (%) [4] [%] | digitalized pathway activity, Heat Shock ([5]; 5637 cells) | also measured
N.N.[Cl][Pt][Cl] [Ci, (SP-4-2)-diamminedichloroplatinum(II)] | 1.74 | 90.77 | 0 (null (0) if neither of the above holds) | 0.66 | 321.19 | 0 (null (0) if neither of the above holds) | 0.71 | 340.57 | 1.65 | 389.00 | 72.05 | 0.51 | 14.71 | 9.33 | 9.33 | 9.33 | 15.46 | 10.49 | 15.42 | 0 (null (0) if neither of the above holds) | digitalized pathway activity, MAPK/ERK ([1]; UM-UC-3 cells): 0 (null (0) if neither of the above holds); relative drug trigged pathway activity over the no-drug level, Heat Shock ([5]; 5637 cells): 0.65 fold; Relative activity, Heat Shock reporter ([5]; 5637 cells): 9.18; relative drug trigged pathway activity over the no-drug level, Heat Shock ([5]; Biu87 cells): 1.52 fold; Relative activity, Heat Shock reporter ([5]; Biu87 cells): 2.87; digitalized pathway activity, Heat Shock ([5]; H-bc cells): 0 (null (0) if neither of the above holds); relative drug trigged pathway activity over the no-drug level, Heat Shock ([5]; H-bc cells): 1.19 fold; Relative activity, Heat Shock reporter ([5]; H-bc cells): 16.31; digitalized pathway activity, Heat Shock ([5]; SV-HUC-1 cells): 0 (null (0) if neither of the above holds); relative drug trigged pathway activity over the no-drug level, Heat Shock ([5]; SV-HUC-1 cells): 0.93 fold; Relative activity, Heat Shock reporter ([5]; SV-HUC-1 cells): 36.80; digitalized pathway activity, Heat Shock ([5]; UM-UC-3 cells): 0 (null (0) if neither of the above holds); Relative activity, Heat Shock reporter ([5]; UM-UC-3 cells): 3.42; relative drug trigged pathway activity over the no-drug level, Heat Shock ([5]; Um-Uc-3 cells): 0.79 fold
COc1cccc2c1C(=O)c1c(O)c3c(c(O)c1C2=O)C[C@@](O)(C(=O)CO)C[C@@H]3[C@@H]1C[C@H](N)[C@@H](O)[C@H](C)O1 [EH, (8R,10S)-10-((2S,4S,5R,6S)-4-amino-5-hydroxy-6-methyltetrahydro-2H-pyran-2-yl)-6,8,11-trihydroxy-8-(2-hydroxyacetyl)-1-methoxy-7,8,9,10-tetrahydrotetracene-5,12-dione] | 2.26 | 117.70 | 0 (null (0) if neither of the above holds) | 1.24 | 608.33 | 0 (null (0) if neither of the above holds) | 0.75 | 95.16 | 0.95 | 225.00 | 183.22 | 1.29 | 43.54 | 25.19 | 25.19 | 25.19 | 20.13 | 17.79 | 45.03 | 0 (null (0) if neither of the above holds) | digitalized pathway activity, MAPK/ERK ([1]; SV-HUC-1 cells): 0 (null (0) if neither of the above holds); relative drug trigged pathway activity over the no-drug level, Heat Shock ([5]; 5637 cells): 1.04 fold; Relative activity, Heat Shock reporter ([5]; 5637 cells): 14.60; digitalized pathway activity, Heat Shock ([5]; Biu87 cells): 0 (null (0) if neither of the above holds); relative drug trigged pathway activity over the no-drug level, Heat Shock ([5]; Biu87 cells): 1.06 fold; Relative activity, Heat Shock reporter ([5]; Biu87 cells): 2.01; digitalized pathway activity, Heat Shock ([5]; H-bc cells): 0 (null (0) if neither of the above holds); relative drug trigged pathway activity over the no-drug level, Heat Shock ([5]; H-bc cells): 0.86 fold; Relative activity, Heat Shock reporter ([5]; H-bc cells): 3.13; digitalized pathway activity, Heat Shock ([5]; SV-HUC-1 cells): 0 (null (0) if neither of the above holds); relative drug trigged pathway activity over the no-drug level, Heat Shock ([5]; SV-HUC-1 cells): 0.91 fold; Relative activity, Heat Shock reporter ([5]; SV-HUC-1 cells): 36.00; digitalized pathway activity, Heat Shock ([5]; UM-UC-3 cells): 0 (null (0) if neither of the above holds); Relative activity, Heat Shock reporter ([5]; UM-UC-3 cells): 2.93; relative drug trigged pathway activity over the no-drug level, Heat Shock ([5]; Um-Uc-3 cells): 0.67 fold
